According to patent US20080145858A1, “DETECTION AND IDENTIFICATION OF TOXICANTS BY MEASUREMENT OF GENE […]” (priority 2003, published 2008):
Marks after values point to notes of the source that are not given here.

System: Xenopus laevis neurulation stage embryos (stage 15)
Assay: Xenopus cDNA microarray, differential gene expression after PMA treatment during neurulation (Group II)
Assay type: in vivo
Settings: PMA, stage 15
Source text: Specifically, the method and screen of the present invention function as follows. EST clones produced from Xenopus laevis unfertilized eggs were used in the present study with ˜1,200 EST clones from a 18,500 EST clone set selected for production of a Xenopus cDNA microarray. The Xenopus microarray was used to measure the effect of chemical treatment on Xenopus embryo gene regulation. The chemical treatment was a phorbol ester, PMA. Xenopus eggs were obtained from females induced for ovulation and fertilized in vitro. Control Xenopus laevis embryos were allowed to develop to stage 8 blastula or stage 15 neurula. Treated embryos were exposed to PMA during cleavage stage or during neurulation with end points of blastula (stage 8) or neurula (stage 15). Specifically, PMA 100 ng/ml was added to the incubation media during cleavage stages for evaluation in stage 8 embryo or PMA was added during neural induction for evaluation in stage 15 embryos. RNA extracted from the embryos was used to generate fluorescent cDNA probes for Xenopus microarray analyses to measure differential gene expression with and without the phorbol ester treatment. Analysis was performed using paired RNA samples to compare PMA-treated and untreated embryos: Group I measured the effects of PMA-treatment during the cleavage stage in stage 8 embryos and Group II measured the effects of PMA-treatment during neurulation in stage 15 embryos. Group III measured the change in gene expression between stage 8 and stage 15 embryos.
cDNA fragments were obtained by PCR replication of Xenopus laevis unfertilized egg cDNA inserts, purified, quantitated and loaded onto glass chips by robotics. In addition to the selected ˜1,200 genes, 64 lambda Q gene, an internal control cDNA (Genomic Solutions, Inc., Ann Arbor, Mich.) was loaded on the chip. The insert DNA from ˜1,200 clones were PCR amplified using forward and reverse primers (GF.200 primers, Research Genetics, Huntsville, Ala.). A second PCR was carried out using 1 μl of the primary PCR (20 μl) for template. Excess dNTPs, polymerase and other PCR artifacts were removed from the secondary PCR reactions using Millipore Multiscreen plates (Millipore Corporation, Bedford, Mass.) using the standard protocol. The purity of the PCR products was assessed by electrophoresis and documented using an Alphalmager 1000 Digital Imaging System (Alpha Innotech Corporation, San Leandro, Calif.). The DNA obtained by PCR was quantitated using PicoGreen (Molecular Probes, Eugene, Oreg.). The DNA was denatured and arrayed onto amino-silane coated microscope slides (CMT-GAPS coated slides, Corning, Corning, N.Y.) using a Flexys robotic workstation (Genomic Solutions Inc.). The ˜1,200 PCR products were arrayed in duplicate on each slide and cross-linked. Each gene chip contained duplicate cDNA samples.
Total RNA was prepared from embryos treated in three separate dishes per treatment group that were pooled. Total RNA was isolated from the frog embryos (1,200 embryos for each probe production) using TRIzol extraction (Gibco BRL, Grand Island, N.Y.) and Qiagen RNeasy kits (Qiagen, Valencia, Calif.). The ethanol precipitated RNA was resuspended in RNase-free water, quantitated with RiboGreen (Molecular Probes, Eugene, Oreg.). Total RNA was further purified using oligoTex mRNA maxi kit (Qiagen Co.) with the bound mRNA eluted with minimum volume of elution buffer and precipitated with ethanol. The recovery rate of mRNA by the ethanol precipitation method was ˜70%. Cy3- or Cy5-tagged probes were produced from an mRNA mixture (20 μl) of Xenopus mRNA (5 μg) and lambda Q gene mRNA (3.5 ng) reverse-transcribed with oligo(dT)18-22 primer and dNTPs and the reverse-transcribed cDNA was cross-linked with Cy3 or Cy5 as described in Clontech Atlas™ Glass Fluorescent Labeling kit manual (www.clontech.com). After hydrolysis of the RNA and purification of the probe (Centricon 50, Millipore, Bedford, Mass.), the cDNA in TE buffer was quantitated by absorbance at 260 nm. […]

CCCCCCCCCCCCCC(=O)O[C@@H]1[C@@H](C)[C@@]2(O)[C@@H](C=C(CO)C[C@]3(O)C(=O)C(C)=C[C@@H]23)[C@@H]2C(C)(C)[C@]12OC(C)=O [PMA, phorbol 12-myristate 12-acetate]
Cy3/Cy5 by Landmarks (0.25) (PBX0135G07 mRNA): 3.95 | Cy3/Cy5 by all Data Points (0.469) (PBX0135G07 mRNA): 2.11 | Normalized by Landmarks (0.25) (PBX0135G07 mRNA): 0.253 | Normalized by all Data Points (0.469) (PBX0135G07 mRNA): 0.474 | Ratio of Medians (Cy5/Cy3) First Spot (PBX0135G07 mRNA): 0.98 | Ratio of Medians (Cy5/Cy3) Mean (PBX0135G07 mRNA): 1.01 ± 0.03 ^a | Ratio of Medians (Cy5/Cy3) Second Spot (PBX0135G07 mRNA): 1.04 | Cy3/Cy5 by Landmarks (0.25) (PBX0135H08 mRNA): 4.93 | Cy3/Cy5 by all Data Points (0.469) (PBX0135H08 mRNA): 2.63 | Normalized by Landmarks (0.25) (PBX0135H08 mRNA): 0.203 | Normalized by all Data Points (0.469) (PBX0135H08 mRNA): 0.380 | Ratio of Medians (Cy5/Cy3) First Spot (PBX0135H08 mRNA): 0.78 | Ratio of Medians (Cy5/Cy3) Mean (PBX0135H08 mRNA): 0.81 ± 0.03 ^a | Ratio of Medians (Cy5/Cy3) Second Spot (PBX0135H08 mRNA): 0.84 | Normalized by Landmarks (0.25) (PBX 0136C09 mRNA): 1.53 | Normalized by all Data Points (0.469) (PBX 0136C09 mRNA): 2.87 | Ratio of Medians (Cy5/Cy3) First Spot (PBX 0136C09 mRNA): 4.19 | Ratio of Medians (Cy5/Cy3) Mean (PBX 0136C09 mRNA): 6.12 ± 1.93 ^a | Ratio of Medians (Cy5/Cy3) Second Spot (PBX 0136C09 mRNA): 8.05 | Normalized by Landmarks (0.25) (PBX 0136C12 mRNA): 1.51 | Normalized by all Data Points (0.469) (PBX 0136C12 mRNA): 2.82 | Ratio of Medians (Cy5/Cy3) First Spot (PBX 0136C12 mRNA): 5.29 | Ratio of Medians (Cy5/Cy3) Mean (PBX 0136C12 mRNA): 6.02 ± 0.73 ^a | Ratio of Medians (Cy5/Cy3) Second Spot (PBX 0136C12 mRNA): 6.75 | Normalized by Landmarks (0.25) (PBX 0136F03 mRNA): 1.54 | Normalized by all Data Points (0.469) (PBX 0136F03 mRNA): 2.90 | Ratio of Medians (Cy5/Cy3) First Spot (PBX 0136F03 mRNA): 3.67 | Ratio of Medians (Cy5/Cy3) Mean (PBX 0136F03 mRNA): 6.18 ± 2.5 ^a | Ratio of Medians (Cy5/Cy3) Second Spot (PBX 0136F03 mRNA): 8.68 | Normalized by Landmarks (0.25) (PBX 0136G06 mRNA): 1.36 | Normalized by all Data Points (0.469) (PBX 0136G06 mRNA): 2.54 | Ratio of Medians (Cy5/Cy3) First Spot (PBX 0136G06 mRNA): 4.95 | Ratio of Medians (Cy5/Cy3) Mean (PBX 0136G06 mRNA): 5.42 ± 0.47 ^a | Ratio of Medians (Cy5/Cy3) Second Spot (PBX 0136G06 mRNA): 5.89 | Normalized by Landmarks (0.25) (PBX 0136G08 mRNA): 1.36 | Normalized by all Data Points (0.469) (PBX 0136G08 mRNA): 2.54 | Ratio of Medians (Cy5/Cy3) First Spot (PBX 0136G08 mRNA): 4.48 | Ratio of Medians (Cy5/Cy3) Mean (PBX 0136G08 mRNA): 5.43 ± 0.94 ^a | Ratio of Medians (Cy5/Cy3) Second Spot (PBX 0136G08 mRNA): 6.37 | Cy3/Cy5 by Landmarks (0.25) (PBX0137F04 mRNA): 3.70 | Cy3/Cy5 by all Data Points (0.469) (PBX0137F04 mRNA): 1.97 | Normalized by Landmarks (0.25) (PBX0137F04 mRNA): 0.270 | Normalized by all Data Points (0.469) (PBX0137F04 mRNA): 0.507 | Ratio of Medians (Cy5/Cy3) First Spot (PBX0137F04 mRNA): 0.95 | Ratio of Medians (Cy5/Cy3) Mean (PBX0137F04 mRNA): 1.08 ± 0.13 ^a | Ratio of Medians (Cy5/Cy3) Second Spot (PBX0137F04 mRNA): 1.21 | Normalized by Landmarks (0.25) (PBX 0138E11 mRNA): 1.57 | Normalized by all Data Points (0.469) (PBX 0138E11 mRNA): 2.95 | Ratio of Medians (Cy5/Cy3) First Spot (PBX 0138E11 mRNA): 5.02 | Ratio of Medians (Cy5/Cy3) Mean (PBX 0138E11 mRNA): 6.29 ± 1.27 ^a | Ratio of Medians (Cy5/Cy3) Second Spot (PBX 0138E11 mRNA): 7.56 | Normalized by Landmarks (0.25) (PBX 0138H03 mRNA): 1.44 | Normalized by all Data Points (0.469) (PBX 0138H03 mRNA): 2.70 | Ratio of Medians (Cy5/Cy3) First Spot (PBX 0138H03 mRNA): 6.36 | Ratio of Medians (Cy5/Cy3) Mean (PBX 0138H03 mRNA): 5.75 ± 0.61 ^a | Ratio of Medians (Cy5/Cy3) Second Spot (PBX 0138H03 mRNA): 5.14 | Cy3/Cy5 by Landmarks (0.25) (PBX0139G06 mRNA): 3.77 | Cy3/Cy5 by all Data Points (0.469) (PBX0139G06 mRNA): 2.01 | Normalized by Landmarks (0.25) (PBX0139G06 mRNA): 0.265 | Normalized by all Data Points (0.469) (PBX0139G06 mRNA): 0.497 | Ratio of Medians (Cy5/Cy3) First Spot (PBX0139G06 mRNA): 1.06
